Experimental data: patent publication US20070265245A1, “S-Mirtazapine For The Treatment Of Hot Flush” (N.V. Organon, priority 2004, published 2007)

Tests used:
Assay type in all cases: in vivo
ovariectomized rats [1] = experiment: Tail skin temperature in ovariectomized rats (animal model for hot flushes), telemetry; details: for restoration of the attenuation of the OVX-induced drop in tail skin temperature: summary; for TST lower than the sham operated group: from day 2 onwards
Protocol: (§1) The effect of the maleate salt of S-mirtazapine was measured in an animal model for hot flushes. The model is based on the observation that the drop in tail skin temperature at the transition from the rest to the active phase in rats is attenuated after ovariectomy. The locomotor activity of the rats was also measured.
(§2) Tail skin temperature of the rats was measured by use of the telemetry system from Data Sciences International (DSI), a division of Transoma Medical, Inc., USA. This system comprises implantable wireless transmitters (TA10TA-F40 W/TP), receivers (RPC-1 and RLA1020), a data exchange matrix (DEM), and a data acquisition and analysis system (DQ ART 2.2 silver version).
(§3) The S-mirtazapine maleate was dissolved in 0.9% saline with 5% mulgofen. Compound and vehicle were administered intraperitoneally. Sham placebo and ovariectomized(OVX)/placebo groups received 2 ml/kg/day saline and compound treated groups received 10, 30 or 100 mg/kg/day in a volume of 2 ml/kg/day. Here, the indicated amounts refer to the weight of the maleate salt of S-mirtazepine.
(§4) Female rats from the Crl:WU strain, weighing 225-250 g at arrival, were supplied by CPB Harlan, The Netherlands. Rats were housed individually in Macrolon™ cages (38×22×15 cm) with a sawdust bedding and “Enviro Dry™” as cage enrichment. The day after arrival the rats were ovariectomized or sham operated and the transmitter was implanted intraperitoneally under isoflurane aneasthesia. After surgery the rats were placed in a temperature controlled room (21.5±1° C.) with an adapted light/dark cycle (lights off 9:30 h a.m., lights on 7:30 h p.m.). They were allowed to recover from surgery and to adapt to the light/dark cycle for at least 2 weeks. Food and water were given ad libitum.
The left and right flank and the rear end of the back above the tail implant of the rat were shaved. The rats were anaesthetized with isoflurane (FORENE®/1-chloro-2,2,2,-trifluorethyl-difluoromethyl-ether, Abbott). The operation area was disinfected with Hibicet® (1.5% m/v chloorhexidinedigluconaat and 1.5% m/v cetrimide). The rats were bilateral ovariectomized (OVX) or sham operated. The incision made in the right flank was also used to implant the transmitter in the peritoneal cavity. When closing the abdomen the transmitter was fixed to the abdominal muscles with stitches.
On the back of the rat in height of the hips, a small incision in the skin was made and the thermistor-tipped probe was led to the back of the rat. From here the probe was brought under the skin in the tail to about 2 cm from the base of the tail. The lead was fixed with a stitch at the musculus biceps femoris. To complete the operation the skin was closed with wound clips. Immediately after surgery the rats were treated with the analgesic buprenorphine 50 μg/kg sc (Temgesic®, Schering-Plough).
(§5) Treatment groups were randomized over the OVX groups. The rats were injected intraperitoneally with vehicle or S-mirtazapine maleate once a day at 11:00 a.m. for a period of 5 days. The tail skin temperature and the locomotor activity of the rats were measured every 5 minutes continuously, but the measurements between 12:00 and 02:00 pm (in which period the maximal effect of S-mirtazapine was observed) were used for calculations of the treatment effects. During this period the rats remained completely undisturbed. Before 9:30 am (the time the light turned off) the rats could be taken care of.
(§6) Body weights of the rats were determined before and after the treatment period. Data were expressed as mean ±S.E.M. unless otherwise specified. For testing statistical significance the Analysis of Variance (ANOVA) was used. The data were logarithmically transformed to normalize variations. A value of P<0.05 was considered to be significant.
Data were collected for each rat for 7 seconds every 5 minutes during two hours starting one hour after drug administration (11:00 a.m.). The mean tail skin temperature over this 2-h period was calculated for each rat. […]

ovariectomized rats [2] = experiment: Locomotor activity of ovariectomized rats, telemetry; details: for locomotor activity (decrease to): from the first treatment onwards, vehicle around 1.2 cpm
Protocol: as §1, §2, §3, §4, §5, §6
Data were collected for each rat for 7 seconds every 5 minutes during two hours starting one hour after drug administration (11:00 a.m.). The mean tail skin temperature over this 2-h period was calculated for each rat. In addition, the group means were calculated together with the standard error of the mean (SEM). The tail skin temperature is expressed in degrees centigrade (°C.) and locomotor activity in counts per minutes (cpm).
The number of animals in the different test groups varied between 5-8.

[3] = Body weight of treated rats before and after treatment period; details: experiment 1, 10 mg/kg i.p., 5 days
Protocol: as §6

For `CN1CCN2c3ncccc3Cc3ccccc3[C@H]2C1.O=C(O)/C=C\C(=O)O` [S-mirtazapine maleate], the “restoration of the attenuation of the OVX-induced drop in tail skin temperature” value (ovariectomized rats [1]; 10 mg/kg i.p., OVX rats) was “not”, the “restoration of the attenuation of the OVX-induced drop in tail skin temperature” value (ovariectomized rats [1]; 30 mg/kg i.p., OVX rats) was “restored” and the “effect against hot flush (conclusion)” value (ovariectomized rats [1]; 30 mg/kg in rats) was “effect against hot flush”. The “effect against hot flush (conclusion)” value (ovariectomized rats [1]; 100 mg/kg in rats) was “effect against hot flush”, the “increase in TST after the first treatment day” value (ovariectomized rats [1]; experiment 1, 10 mg/kg/day i.p., OVX rats) was “approximately 2 °C” and the “effect on tail skin temperature on day 5” value (ovariectomized rats [1]; experiment 1, 10 mg/kg/day i.p., day 5) was “no effect”. The “TST after the end of treatment” value (ovariectomized rats [1]; experiment 1, 10 mg/kg/day i.p., all groups returned to normal values for OVX rats) was “about 29 °C”, the “TST during the treatment period” value (ovariectomized rats [1]; experiment 1, 10 mg/kg/day i.p., compared to sham/placebo and compared to OVX/placebo at day 4) was “significantly higher level” and the “tail skin temperature compared to the OVX rats after 5 consecutive days” value (ovariectomized rats [1]; experiment 2, 10 mg/kg) was “no effect”. The “increase in TST after the first treatment” value (ovariectomized rats [1]; experiment 2, 10 mg/kg/day i.p.) was 1-3 °C, the “TST during the treatment period compared to the OVX rats” value (ovariectomized rats [1]; experiment 2, 10 mg/kg/day i.p., day 2 and 3) was “significantly higher level” and the “TST after end of treatment” value (ovariectomized rats [1]; experiment 2, 10 mg/kg/day i.p., returned to normal TST values of OVX rats) was 28-29 °C. The “TST after the end of treatment” value (ovariectomized rats [1]; experiment 2, 30 mg/kg i.p.) was “returned to normal values of OVX rats”, the “TST compared to the sham operated group after 5 consecutive days” value (ovariectomized rats [1]; experiment 2, 30 mg/kg i.p.) was “statistically significantly below” and the “restoration of the fall in TST” value (ovariectomized rats [1]; experiment 2, 30 mg/kg i.p.) was “significantly restored”. The “tail skin temperature compared to the OVX group after 5 consecutive days” value (ovariectomized rats [1]; experiment 2, 30 mg/kg i.p.) was “significant decrease”, the “TST versus sham operated placebo group on day 5” value (ovariectomized rats [1]; experiment 2, 30 mg/kg i.p., day 5) was “statistically significantly different” and the “TST lower than the sham operated group” value (ovariectomized rats [1]; experiment 2, 30 mg/kg i.p.) was 2-4 °C. For the same molecule, the “TST after the end of treatment” value (ovariectomized rats [1]; experiment 2, 100 mg/kg i.p.) was “stayed up to 2 days after the end of treatment at a lower level”, the “restoration of the fall in TST” value (ovariectomized rats [1]; experiment 2, 100 mg/kg i.p.) was “significantly restored” and the “tail skin temperature compared to the OVX group after 5 consecutive days” value (ovariectomized rats [1]; experiment 2, 100 mg/kg i.p.) was “significant decrease”. The “TST lower than the sham operated group” value (ovariectomized rats [1]; experiment 2, 100 mg/kg i.p.) was 2-4 °C, the locomotor activity (ovariectomized rats [2]; 30 mg/kg, summary, effect not statistically significant) was “reduced” and the “locomotor activity compared to OVX placebo group” value (ovariectomized rats [2]; experiment 1, 10 mg/kg i.p.) was “no significant effect”. The “locomotor activity compared to sham operated placebo group” value (ovariectomized rats [2]; experiment 1, 10 mg/kg/day i.p., day 3) was “significant reduction”, the “effect on locomotor activity” value (ovariectomized rats [2]; experiment 2, 10 mg/kg/day, rest of experiment at level of placebo treated OVX rats) was “only an effect on locomotor activity after the first treatment” and the “locomotor activity at the end of the treatment period” value (ovariectomized rats [2]; experiment 2, 30 mg/kg i.p.) was “about 0.5 cpm”. The “drop in locomotor activity” value (ovariectomized rats [2]; experiment 2, 30 mg/kg i.p., after 5 days treatment) was 50%, the “locomotor activity (decrease to)” value (ovariectomized rats [2]; experiment 2, 30 mg/kg i.p.) was “about 0.5 cpm” and the “locomotor activity at the end of the treatment period” value (ovariectomized rats [2]; experiment 2, 100 mg/kg i.p.) was “increased to the level of the vehicle treated rats”. For the same molecule, the “locomotor activity (decrease to)” value (ovariectomized rats [2]; experiment 2, 100 mg/kg i.p.) was “about 0.5 cpm”, the “locomotor activity after 5 days treatment compared to the OVX placebo group” value (ovariectomized rats [2]; experiment 2, any dose group (10, 30, 100 mg/kg)) was “No statistically significant effect” and the “effect on body weight (BW)” value [3] was “no significant effect”.
